Structures can show the parent of a compound that is named as a salt. Where two headings read alike, the source gives them in different places.
Key:
[1] = Pharmacokinetic parameters in Swiss mice after oral administration; conditions: mouse, in vivo, 1 mg/kg p.o.; for Cmax: n = 4; for AUC(0-t): n = 4, read-out: AUC(0-48 h)
Source text: Moreover, preferred compounds of the present invention also display an outstanding bioavailability.

circulating lymphocytes [2] = experiment: In vivo lymphopenia ED50 in mice; conditions: Mus musculus, Lymphocyte, read-out: ED50 (EDG1) (In mice)
Protocol: (§1) b) Assessment of Lymphopenia
(§2) Lymphopenia was assessed in vivo. Experiments were done in non-fasted/fasted Swiss mice and/or: Sprague Dawley rats, Wistar rats, Beagle dogs, Cynomolgus monkeys. Compounds were administered orally in suspension in carboxymethyl-cellulose 0.5-1% in water (W/V). Blood was taken on anesthetized/non anaesthetized animal (4% isoflurane) and samples collected in EDTA-containing vacuum tubes from 1 h 30 to 72 hours post administration for lymphopenia measurement.
(§3) After 10 minutes stirring, cells were counted using ABC Vet haemocytometer (Scil vet animal Care) for rodent and dog or ADVIA 120 hematology analyzer for monkeys. Pharmacodynamic effect was measured by the decrease in circulating lymphocytes by test item treatment in comparison with haematological parameters of control animals or versus predosing in the same animals.

EDG1 = experiment: In vivo activity versus counterpart of WO 2007/132307; conditions: at 1 mg/kg
Source text: The compounds of the invention show a better in vivo activity profile over their corresponding counterparts of WO 2007/132307, as evidenced below: […]

EDG3 = EDG3 (Homo sapiens, UniProt Q99500); experiment: 35S-GTPγS binding assay, EDG3 (S1P3); assay type: biochemical; conditions: Table 1a
Protocol: (§4) a) 35S-GTPγS Binding Assay GTP-γ-^35S binding was performed using […]15 μg protein of cell membranes suspended in 50 mM tris-HCl pH 7.5 containing 10 mM MgCl2, 100 mM NaCl and 10 μM GDP. The radioligand was 0.025 nM [^35S] GTP-γ-S and non specific binding determined in the presence of 10 μM non-radioactive GTP-γ-S. […] The maximal stimulation elicited by S1P was taken as a reference to define full or partial agonism and calculate the intrinsic activity (i.a.) of compounds.

EDG-1 [3] = target: T1, EDG-1 (Homo sapiens, UniProt P21453); experiment: 35S-GTPγS binding assay, EDG1 (S1P1); assay type: biochemical; set-up: expressed in transfected cells
Protocol: as §4

hERG channel = hERG channel (Homo sapiens, UniProt Q12809); experiment: biochemical
Protocol: c) Evaluation of Activity for hERG Blockade Liability
HEK293 cells were stably transfected with the human hERG receptor gene. Binding assays were performed using 5 μg of cell membranes expressing hERG channel resuspended in 10 mM Hepes pH 7.4, 135 mM NaCl, 60 mM DL-Aspartic Acid Potassium, 1 mM EGTA, 0.8 mM MgCl2, 10 mM (D+) Glucose, 0.01% BSA, in a final volume of 200 μL. For [^3H] […] Non specific binding was estimated in the presence of 1 μM Astemizole. The reaction was terminated by filtration through Durapore BV 1.2 μm filters pre-soaked in 3% polyethyleneimine 10 minutes at room temperature. Filters were rinsed 2 times with 250 μL of ice cold 25 mM Tris-HCl pH 7.4 buffer. The filter-bound radioactivity was measured in a liquid scintillation counter with 50 μL of scintillation fluid. [^3H]
The hERG binding investigated by use of [^3H]

EDG5 = EDG5 (Homo sapiens, UniProt O95136); experiment: 35S-GTPγS binding assay, EDG5 (S1P2); assay type: biochemical; conditions: Table 1a
Protocol: as §4

circulating lymphocytes [4] = experiment: Assessment of lymphopenia in rats; assay type: in vivo; conditions: 0.3 mpk, 24 hrs
Protocol: as §1, §2, §3

EDG-1 [5] = target: T1, EDG-1; experiment: [3H]dihydroS1P binding assay on HEK293-EDG-1 cell membranes; set-up: expressed in transfected cells; host or cells: HEK293; conditions: transfected HEK293 cells; read-out: IC50, competition with [3H]dihydroS1P
Source text: Furthermore, we settled a binding assay on HEK293-EDG-1 cells on these membranes using [3H]dihydroS1P. By Scatchard analysis we identified one binding site for [3H]dihydroS1P. Both S1P and dihydroS1P (an S1P biometabolite) compete with [3H]dihydroS1P on transfected HEK293 cells with an 1050 closed to 5± nM and a maximum binding capacity Bmax of […] of protein.

[6] = Table 1a, read-out: EC50 (nM) EDG1

hERG channel, sequence (Q12809 whole entry): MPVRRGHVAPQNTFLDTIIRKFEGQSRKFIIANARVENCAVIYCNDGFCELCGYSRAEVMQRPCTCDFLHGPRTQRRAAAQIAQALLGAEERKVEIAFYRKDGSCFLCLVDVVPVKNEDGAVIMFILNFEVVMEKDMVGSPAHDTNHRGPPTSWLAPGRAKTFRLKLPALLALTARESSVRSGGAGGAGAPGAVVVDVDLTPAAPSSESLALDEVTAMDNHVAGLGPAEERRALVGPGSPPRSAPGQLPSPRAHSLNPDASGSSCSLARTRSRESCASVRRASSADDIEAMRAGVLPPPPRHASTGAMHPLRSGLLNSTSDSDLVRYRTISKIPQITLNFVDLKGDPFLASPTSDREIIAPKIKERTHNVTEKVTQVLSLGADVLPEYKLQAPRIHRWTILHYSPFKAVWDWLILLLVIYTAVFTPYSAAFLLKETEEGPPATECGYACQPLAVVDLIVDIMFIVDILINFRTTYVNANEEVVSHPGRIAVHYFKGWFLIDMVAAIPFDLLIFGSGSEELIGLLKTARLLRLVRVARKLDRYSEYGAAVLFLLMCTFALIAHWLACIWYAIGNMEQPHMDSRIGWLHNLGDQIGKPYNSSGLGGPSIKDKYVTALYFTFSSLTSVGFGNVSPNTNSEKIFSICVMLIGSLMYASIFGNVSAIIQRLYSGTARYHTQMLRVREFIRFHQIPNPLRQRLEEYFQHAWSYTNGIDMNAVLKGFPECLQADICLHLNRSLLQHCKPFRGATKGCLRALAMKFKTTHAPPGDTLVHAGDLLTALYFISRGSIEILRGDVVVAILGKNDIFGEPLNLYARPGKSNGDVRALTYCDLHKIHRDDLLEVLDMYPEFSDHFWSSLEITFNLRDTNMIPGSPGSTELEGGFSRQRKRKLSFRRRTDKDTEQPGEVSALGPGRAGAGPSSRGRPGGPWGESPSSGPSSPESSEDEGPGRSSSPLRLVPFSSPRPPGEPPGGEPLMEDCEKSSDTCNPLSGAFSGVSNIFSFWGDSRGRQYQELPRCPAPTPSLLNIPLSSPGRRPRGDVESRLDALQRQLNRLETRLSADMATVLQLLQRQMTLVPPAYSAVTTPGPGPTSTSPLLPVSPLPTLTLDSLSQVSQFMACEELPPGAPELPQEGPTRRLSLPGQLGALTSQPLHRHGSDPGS
T1 sequence (P21453 whole entry): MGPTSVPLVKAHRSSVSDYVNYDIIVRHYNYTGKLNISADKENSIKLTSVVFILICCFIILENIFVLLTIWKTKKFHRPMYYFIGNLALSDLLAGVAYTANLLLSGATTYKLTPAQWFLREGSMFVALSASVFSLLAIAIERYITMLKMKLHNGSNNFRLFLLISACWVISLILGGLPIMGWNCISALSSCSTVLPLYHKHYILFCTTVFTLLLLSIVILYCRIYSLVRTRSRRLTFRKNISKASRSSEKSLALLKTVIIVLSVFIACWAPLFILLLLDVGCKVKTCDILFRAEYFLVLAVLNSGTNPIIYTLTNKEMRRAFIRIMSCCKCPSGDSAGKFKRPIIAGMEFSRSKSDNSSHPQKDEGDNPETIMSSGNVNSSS
EDG5, sequence (O95136 whole entry, species assumed): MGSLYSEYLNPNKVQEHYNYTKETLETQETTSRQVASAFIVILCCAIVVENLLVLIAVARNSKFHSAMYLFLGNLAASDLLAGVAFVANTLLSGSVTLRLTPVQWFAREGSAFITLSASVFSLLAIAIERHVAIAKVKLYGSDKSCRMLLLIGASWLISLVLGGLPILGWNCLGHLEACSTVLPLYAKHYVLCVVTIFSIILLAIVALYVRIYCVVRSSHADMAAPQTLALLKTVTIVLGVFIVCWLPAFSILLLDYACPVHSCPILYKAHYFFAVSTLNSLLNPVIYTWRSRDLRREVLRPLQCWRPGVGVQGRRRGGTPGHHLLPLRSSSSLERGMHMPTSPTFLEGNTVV
EDG3, sequence (Q99500 whole entry, species assumed): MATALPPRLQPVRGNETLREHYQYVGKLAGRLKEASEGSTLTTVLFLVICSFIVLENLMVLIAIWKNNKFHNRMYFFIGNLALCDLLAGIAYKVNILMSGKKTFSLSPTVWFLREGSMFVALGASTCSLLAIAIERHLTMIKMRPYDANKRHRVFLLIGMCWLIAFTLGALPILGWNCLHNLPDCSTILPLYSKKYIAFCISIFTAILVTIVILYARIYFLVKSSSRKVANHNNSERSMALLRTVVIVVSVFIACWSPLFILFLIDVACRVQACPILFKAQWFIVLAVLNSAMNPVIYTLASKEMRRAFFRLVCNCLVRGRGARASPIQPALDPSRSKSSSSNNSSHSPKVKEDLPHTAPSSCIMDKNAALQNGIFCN

| SMILES | ED50 (circulating lymphocytes [2]) [mg/kg] | EC50 (EDG3) [nM] | EC50 (EDG-1 [3]; [6]) [nM] | EC50 (EDG-1 [3]; Table 1b, read-out: EDG1 EC50) [nM] | Ki (hERG channel) [nM] | EC50 (EDG5) [nM] | further results |
| --- | --- | --- | --- | --- | --- | --- | --- |
| CC(C)Cc1ccc(-c2nc(-c3ccc(CN4CC(C(=O)O)C4)cc3)no2)cc1 [Comparative compound 5, reference compound] |  |  |  |  |  |  | Cmax [1]: 495 ng/mL; AUC(0-t) [1]: 4530 ng·h/mL |
| Cl.O=C(O)C1(C(=O)O)CCN(Cc2ccc(-c3noc(-c4ccc(-c5ccccc5)c(F)c4)n3)cc2)CC1 [Comparative example 6, reference compound] | 0.4 |  |  |  |  |  |  |
| CC(C)Cc1ccc(-c2nc(-c3ccc(CN4CCC(C(=O)O)(C(=O)O)CC4)cc3)no2)cc1 [Comparative example 7, reference compound] | 1.8 |  |  |  |  |  |  |
| Cl.O=C(O)C1(C(=O)O)CCN(Cc2ccc(-c3noc(-c4ccc(C5CCCCC5)cc4)n3)cc2)CC1 [Comparative example 8, reference compound] | 10 |  |  |  |  |  |  |
| CC(C)Cc1ccc(-c2nc(-c3ccc(CN[C@H]4C[C@@H](C(=O)O)C4)cc3)no2)cc1 [Comparative example 9, reference compound] |  |  |  |  |  |  | ED50 (EDG1) (EDG1): Inactive at 1 mg/kg |
| CC1(C(=O)O)CCN(Cc2ccc(-c3noc(-c4ccc(C5CCCCC5)c(Cl)c4)n3)cc2)CC1 [Example 1, 1-{4-[5-(3-chloro-4-cyclohexylphenyl)-[1,2,4]-oxadiazol-3-yl]benzyl}-4-methylpiperidine-4-carboxylic acid] |  | > 1000 | < 1 | < 1 | > 10000 | > 1000 |  |
| CC(C)Cc1ccc(-c2nc(-c3ccc(CN4CCC(C)(C(=O)O)CC4)cc3)no2)cc1Cl [Example 2, 1-{4-[5-(3-chloro-4-isobutylphenyl)-[1,2,4]-oxadiazol-3-yl]benzyl}-4-methylpiperidine-4-carboxylic acid, tert-butylamine salt] |  |  | < 1 | < 1 | > 10000 |  | Lymphopenia in rats % lymphopenia at given dose at 24 hrs (circulating lymphocytes [4]; Sprague-Dawley female): 76% (0.3 mpk) |
| CC(C)Cc1ccc(-c2nc(-c3ccc(CN4CCC(C)(C(=O)O)CC4)cc3)no2)cc1Cl [Example 3, 1-{4-[5-(3-chloro-4-isobutylphenyl)-[1,2,4]-oxadiazol-3-yl]benzyl}-4-methylpiperidine-4-carboxylic acid] | 0.2 |  |  |  |  |  | Cmax [1]: 798 ng/mL; AUC(0-t) [1]: 13100 ng·h/mL |
| CC1(C(=O)O)CCN(Cc2ccc(-c3noc(-c4ccc(C5CCCC5)c(Cl)c4)n3)cc2)CC1 [Example 7, 1-{4-[5-(3-chloro-4-cyclopentylphenyl)-[1,2,4]-oxadiazol-3-yl]benzyl}-4-methylpiperidine-4-carboxylic acid] |  | 581 | < 1 | < 1 | > 10000 | > 1000 |  |
| CC1(C(=O)O)CCN(Cc2ccc(-c3noc(-c4ccc(-c5ccccc5)c(Cl)c4)n3)cc2)CC1 [Example 8, 1-{4-[5-(2-Chlorobiphenyl-4-yl)-[1,2,4]-oxadiazol-3-yl]benzyl}-4-methylpiperidine-4-carboxylic acid] | 0.1 |  |  | < 1 |  |  |  |
| COCC1(C(=O)O)CCN(Cc2ccc(-c3noc(-c4ccc(C5CCCC5)c(Cl)c4)n3)cc2)CC1 [Example 9, 1-{4-[5-(3-chloro-4-cyclopentylphenyl)-[1,2,4]-oxadiazol-3-yl]benzyl}-4-methoxymethylpiperidine-4-carboxylic acid tert-butyl amine salt] |  | > 1000 | < 1 | < 1 | > 10000 | > 1000 |  |
| COCC1(C(=O)O)CCN(Cc2ccc(-c3noc(-c4ccc(C5CCCCC5)c(Cl)c4)n3)cc2)CC1 [Example 10, 1-{4-[5-(3-chloro-4-cyclohexylphenyl)-[1,2,4]-oxadiazol-3-yl]benzyl}-4-methoxymethylpiperidine-4-carboxylic acid tert-butyl amine salt] | 0.2 | 610 | < 1 | < 1 | > 10000 |  |  |
| CCC1(C(=O)O)CCN(Cc2ccc(-c3noc(-c4ccc(CC(C)C)c(Cl)c4)n3)cc2)CC1 [Example 11, 1-{4-[5-(3-chloro-4-isobutylphenyl)-[1,2,4]-oxadiazol-3-yl]benzyl}-4-ethylpiperidine-4-carboxylic acid tert-butyl amine salt] |  | 198 | < 1 | < 1 | > 10000 | > 1000 | Lymphopenia in rats % lymphopenia at given dose at 24 hrs (circulating lymphocytes [4]; Wistar female): 75% (0.3 mpk) |
| C=CCC1(C(=O)O)CCN(Cc2ccc(-c3noc(-c4ccc(CC(C)C)c(Cl)c4)n3)cc2)CC1 [Example 12, 4-allyl-1-{4-[5-(3-chloro-4-isobutylphenyl)-[1,2,4]-oxadiazol-3-yl]benzyl}piperidine-4-carboxylic acid tert-butyl amine salt] |  | > 1000 | < 1 | < 1 | > 10000 | > 1000 | Lymphopenia in rats % lymphopenia at given dose at 24 hrs (circulating lymphocytes [4]; Wistar female): 66% (0.3 mpk) |
| CCCC1(C(=O)O)CCN(Cc2ccc(-c3noc(-c4ccc(CC(C)C)c(Cl)c4)n3)cc2)CC1 [Example 13, 1-{4-[5-(3-chloro-4-isobutylphenyl)-[1,2,4]-oxadiazol-3-yl]benzyl}-4-propylpiperidine-4-carboxylic acid tert-butyl amine salt] |  | > 1000 | < 1 | < 1 | > 10000 | > 1000 |  |
| COCCOCC1(C(=O)O)CCN(Cc2ccc(-c3noc(-c4ccc(CC(C)C)c(Cl)c4)n3)cc2)CC1 [Example 14, 1-{4-[5-(3-chloro-4-isobutylphenyl)-[1,2,4]-oxadiazol-3-yl]benzyl}-4-(2-methoxyethoxymethyl)piperidine-4-carboxylic acid tert-butyl amine salt] | 0.2 | > 1000 | < 1 |  | > 10000 | > 1000 | Lymphopenia in rats % lymphopenia at given dose at 24 hrs (circulating lymphocytes [4]; Wistar male): 72% (0.3 mpk); Cmax [1]: 843 ng/mL; AUC(0-t) [1]: 9240 ng·h/mL |
| CC(C)Cc1ccc(-c2nc(-c3ccc(CN4CCC(CO)(C(=O)O)CC4)cc3)no2)cc1Cl [Example 15, 1-{4-[5-(3-chloro-4-isobutylphenyl)-[1,2,4]-oxadiazol-3-yl]benzyl}-4-hydroxymethylpiperidine-4-carboxylic acid tert-butyl amine salt] |  | > 1000 | < 1 | < 1 | > 10000 | > 1000 | Lymphopenia in rats % lymphopenia at given dose at 24 hrs (circulating lymphocytes [4]; Sprague-Dawley female): 69% (0.3 mpk) |
| CCCCCCCCCCCCC/C=C/[C@@H](O)[C@@H](N)COP(=O)(O)O [Example S1P, sphingosine-1-phosphate] |  |  |  |  |  |  | IC50 (EDG-1 [5]): ~5 nM |
| CCCCCCCCCCCCCCC[C@@H](O)[C@@H](N)COP(=O)(O)O [dihydroS1P] |  |  |  |  |  |  | IC50 (EDG-1 [5]): ~5 nM |
| CC(C)Cc1ccc(-c2nc(-c3ccc(CN4CCC(C)(C(=O)O)CC4)cc3)no2)cc1 [drawing 239] |  |  |  |  |  |  | lymphopenia (EDG1): 40% at 1 mg/kg |
